Laboratory results reported in patent US11292791B2 (priority 2017, dated 2022).

Target: BRD4 (Homo sapiens (Human), UniProt O60885)
Settings: read-out: BRD4 IC50 (μM gmean)

| Structure (SMILES) | IC50 |
| --- | --- |
| COC(=O)N1c2ccc3c(nc(CC(C(=O)O)c4ccc(C)cc4)n3C3CCCOC3)c2CC[C@@H]1C (some centres unmarked) [Example 829] | 1 to 1000 µM |
| COC(=O)N1c2ccc3c(nc(Nc4ccc(Cl)cc4)n3[C@@H]3CCC[C@@H](C(=O)O)C3)c2CC[C@@H]1C [Example 831] | 1 to 1000 µM |
| COC(=O)N1c2ccc3c(nc(C(C)Oc4cnccn4)n3C3CCC(C(=O)O)CC3)c2CC[C@@H]1C (some centres unmarked) [Example 833] | 1 to 1000 µM |
| COC(=O)N1c2ccc3c(nc(C(C)Cn4cc(C)cn4)n3C3CCS(=O)(=O)C3)c2CC[C@@H]1C (some centres unmarked) [Example 834] | 1 to 1000 µM |
| COC(=O)[C@@H]1CCC[C@@H](n2c(Cc3ccccc3)nc3c4c(ccc32)N(C(=O)OC)[C@@H](C)CC4)C1 [Example 840] | 1 to 1000 µM |
| COC(=O)N1c2ccc3c(nc(Nc4ccccc4)n3[C@H]3CC[C@H](C(=O)O)CC3)c2CC[C@@H]1C [Example 843] | 1 to 1000 µM |
| COC(=O)N1c2ccc3c(nc(C(C)Cn4cc(C)cn4)n3C3CCS(=O)(=O)C3)c2CC[C@@H]1C (some centres unmarked) [Example 844] | 1 to 1000 µM |
| COC(=O)N1c2ccc3c(nc(CC(C(=O)O)c4ccc(C)c(F)c4)n3C3CCCOC3)c2CC[C@@H]1C (some centres unmarked) [Example 845] | 1 to 1000 µM |
| COC(=O)N1c2ccc3c(nc(Nc4ccc(OC)cc4F)n3[C@@H]3CCC[C@@H](C(=O)O)C3)c2CC[C@@H]1C [Example 846] | 1 to 1000 µM |
| COC(=O)N1c2ccc3c(nc(CC(C(=O)O)c4ccccc4)n3-c3ccc(OC)cc3)c2CC[C@@H]1C (some centres unmarked) [Example 849] | 1 to 1000 µM |
| COC(=O)N1c2ccc3c(nc(Nc4ccc(OC)cc4F)n3[C@H]3CC[C@H](C(=O)O)CC3)c2CC[C@@H]1C [Example 851] | 1 to 1000 µM |
| COC(=O)N1c2ccc3c(nc(CC(C(=O)O)c4cccc5ccccc45)n3C3CCCOC3)c2CC[C@@H]1C (some centres unmarked) [Example 852] | 1 to 1000 µM |
| COC(=O)N1c2ccc3c(nc(C4(c5cnccn5)CC4)n3[C@@H]3CCC[C@@H](C(=O)O)C3)c2CC[C@@H]1C [Example 856] | 1 to 1000 µM |
| COC(=O)N1c2ccc3c(nc(Cc4ccc(N5CCCC5=O)cc4)n3[C@@H]3CCC[C@@H](C(=O)O)C3)c2CC[C@@H]1C [Example 858] | 1 to 1000 µM |
| COC(=O)N1c2ccc3c(nc(C(C)Cn4cccn4)n3C3CCCS(=O)(=O)C3)c2CC[C@@H]1C (some centres unmarked) [Example 860] | 1 to 1000 µM |
| COC(=O)N1c2ccc3c(nc(C(C)Cn4cc(C(F)F)cn4)n3C3CCCC(C(=O)O)C3)c2CC[C@@H]1C (some centres unmarked) [Example 862] | 1 to 1000 µM |
| COC(=O)N1c2ccc3c(nc(CC4CCOCC4)n3[C@@H]3CCC[C@@H](C(=O)O)C3)c2CC[C@@H]1C [Example 863] | 1 to 1000 µM |
| COC(=O)N1c2ccc3c(nc(C(C)Cc4cnn(C)c4)n3C3CCCC(C(=O)O)C3)c2CC[C@@H]1C (some centres unmarked) [Example 867] | 1 to 1000 µM |
| COC(=O)N1c2ccc3c(nc(CC(C(=O)O)c4cccc(C(F)F)c4)n3C3CCCOC3)c2CC[C@@H]1C (some centres unmarked) [Example 868] | 1 to 1000 µM |
| COC(=O)N1c2ccc3c(nc(CC(C(=O)O)c4ccc5ccccc5c4)n3C3CCCOC3)c2CC[C@@H]1C (some centres unmarked) [Example 870] | 1 to 1000 µM |
| COC(=O)N1c2ccc3c(nc(CCn4ccccc4=O)n3[C@@H]3CCC[C@@H](C(=O)O)C3)c2CC[C@@H]1C [Example 871] | 1 to 1000 µM |
| COC(=O)N1c2ccc3c(nc(CC(C(=O)O)c4ccc(C)cc4)n3C3CCCOC3)c2CC[C@@H]1C (some centres unmarked) [Example 872] | 1 to 1000 µM |
| COC(=O)N1c2ccc3c(nc(Nc4ccc(F)cc4)n3[C@@H]3CCC[C@@H](C(=O)O)C3)c2CC[C@@H]1C [Example 876] | 1 to 1000 µM |

| Structure (SMILES) | IC50 |
| --- | --- |
| COC(=O)N1c2ccc3c(nc(C(C)Cn4cccn4)n3C3CCCC(C(=O)O)C3)c2CC[C@@H]1C (some centres unmarked) [Example 878] | 1 to 1000 µM |
| COC(=O)N1c2ccc3c(nc(Nc4ccc(F)cc4)n3[C@H]3CC[C@H](C(=O)O)CC3)c2CC[C@@H]1C [Example 880] | 1 to 1000 µM |
| COC(=O)N1c2ccc3c(nc(S(=O)(=O)Cc4ccccc4)n3[C@H]3CC[C@H](C(=O)O)CC3)c2CC[C@@H]1C [Example 882] | 1 to 1000 µM |
| COC(=O)N1c2ccc3c(nc(CC(C(=O)O)c4cccc(C)c4)n3C3CCCOC3)c2CC[C@@H]1C (some centres unmarked) [Example 885] | 1 to 1000 µM |
| COC(=O)N1c2ccc3c(nc(C(C)Oc4cnccn4)n3C3CCC(C(=O)O)CC3)c2CC[C@@H]1C (some centres unmarked) [Example 887] | 1 to 1000 µM |
| COC(=O)N1c2ccc3c(nc(CC(C(=O)O)c4ccc(C(C)C)cc4)n3C3CCCOC3)c2CC[C@@H]1C (some centres unmarked) [Example 888] | 1 to 1000 µM |
| COC(=O)N1c2ccc3c(nc(CC(C(=O)O)c4ccccc4)n3C3COCC(F)(F)C3)c2CC[C@@H]1C (some centres unmarked) [Example 891] | 1 to 1000 µM |
| COC(=O)N1c2ccc3c(nc(CC4CCN(C(C)=O)CC4)n3[C@@H]3CCC[C@@H](C(=O)O)C3)c2CC[C@@H]1C [Example 892] | 1 to 1000 µM |
| COC(=O)N1c2ccc3c(nc(C(C)Cc4cnn(C)c4)n3C3CCC(C(=O)O)CC3)c2CC[C@@H]1C (some centres unmarked) [Example 894] | 1 to 1000 µM |
| COC(=O)N1c2ccc3c(nc(S(=O)(=O)c4ccccc4)n3[C@H]3CC[C@H](C(=O)O)CC3)c2CC[C@@H]1C [Example 895] | 1 to 1000 µM |
| COC(=O)N1c2ccc3c(nc(CC(=O)N4CCCCC4)n3[C@@H]3CCC[C@@H](C(=O)O)C3)c2CC[C@@H]1C [Example 896] | 1 to 1000 µM |
| COC(=O)N1c2ccc3c(nc(CC(C(=O)O)c4ccc(Cl)cc4)n3C3CCCOC3)c2CC[C@@H]1C (some centres unmarked) [Example 900] | 1 to 1000 µM |
| COC(=O)N1c2ccc3c(nc(CC(C(=O)O)c4ccc(C(F)F)cc4)n3C3CCCOC3)c2CC[C@@H]1C (some centres unmarked) [Example 901] | 1 to 1000 µM |
| COC(=O)N1c2ccc3c(nc(CC(C(=O)O)c4ccc(C(F)F)cc4)n3C3CCCOC3)c2CC[C@@H]1C (some centres unmarked) [Example 902] | 1 to 1000 µM |
| COC(=O)N1c2ccc3c(nc(CC(C(=O)O)c4ccccc4)n3C3COCC(F)(F)C3)c2CC[C@@H]1C (some centres unmarked) [Example 903] | 1 to 1000 µM |
| COC(=O)N1c2ccc3c(nc(CC(C(=O)O)c4ccc(C5CC5)cc4)n3C3CCCOC3)c2CC[C@@H]1C (some centres unmarked) [Example 904] | 1 to 1000 µM |
| COC(=O)N1c2ccc3c(nc(CC(C(=O)O)c4ccccc4)n3-c3cccc(C#N)c3)c2CC[C@@H]1C (some centres unmarked) [Example 905] | 1 to 1000 µM |
| COC(=O)N1c2ccc3c(nc([C@H](C)Cn4cc(Cl)cn4)n3[C@H]3CC[C@H](C(=O)O)CC3)c2CC[C@@H]1C [Example 907] | 1 to 1000 µM |
| COC(=O)N1c2ccc3c(nc(Oc4ccccc4)n3[C@H]3CC[C@H](C(=O)O)CC3)c2CC[C@@H]1C [Example 908] | 1 to 1000 µM |
| COC(=O)N1c2ccc3c(nc(Nc4c(C)n[nH]c4C)n3[C@H]3CC[C@H](C(=O)O)CC3)c2CC[C@@H]1C [Example 909] | 1 to 1000 µM |
| COC(=O)N1c2ccc3c(nc(C(C)Cn4cc(C(F)F)cn4)n3C3CCC(C(=O)O)CC3)c2CC[C@@H]1C (some centres unmarked) [Example 912] | 1 to 1000 µM |
| COC(=O)N1c2ccc3c(nc(CC(C(=O)O)c4ccc(C)cc4)n3C3COCC(F)(F)C3)c2CC[C@@H]1C (some centres unmarked) [Example 913] | 1 to 1000 µM |
| COC(=O)N1c2ccc3c(nc(CC(C(=O)O)c4ccccc4)n3-c3ccc(C#N)cc3)c2CC[C@@H]1C (some centres unmarked) [Example 914] | 1 to 1000 µM |

| Structure (SMILES) | IC50 |
| --- | --- |
| COC(=O)N1c2ccc3c(nc(Nc4cc(C)nn4C)n3[C@H]3CC[C@H](C(=O)O)CC3)c2CC[C@@H]1C [Example 915] | 1 to 1000 µM |
| COC(=O)N1c2ccc3c(nc(Nc4cc(C)nn4C)n3[C@@H]3CCC[C@@H](C(=O)O)C3)c2CC[C@@H]1C [Example 916] | 1 to 1000 µM |
| COC(=O)N1c2ccc3c(nc(C(C)Cn4cccn4)n3C3CCC(C(=O)O)CC3)c2CC[C@@H]1C (some centres unmarked) [Example 917] | 1 to 1000 µM |
| COC(=O)N1c2ccc3c(nc(C(C)Cn4cc(C)cn4)n3C3CCC(C(=O)O)CC3)c2CC[C@@H]1C (some centres unmarked) [Example 918] | 1 to 1000 µM |
| COC(=O)N1c2ccc3c(nc(CC(C(=O)O)c4ccc(C(F)F)cc4)n3C3COCC(F)(F)C3)c2CC[C@@H]1C (some centres unmarked) [Example 920] | 1 to 1000 µM |
| COC(=O)N1c2ccc3c(nc(C(=O)NC4CCCC4)n3[C@@H]3CCC[C@@H](C(=O)O)C3)c2CC[C@@H]1C [Example 922] | 1 to 1000 µM |
| COC(=O)N1c2ccc3c(nc(C(=O)N(C)C4CCCC4)n3[C@@H]3CCC[C@@H](C(=O)O)C3)c2CC[C@@H]1C [Example 923] | 1 to 1000 µM |
| COC(=O)N1c2ccc3c(nc(C(C)Cn4cc(Cl)cn4)n3C3CCS(=O)(=O)C3)c2CC[C@@H]1C (some centres unmarked) [Example 926] | 1 to 1000 µM |
| COC(=O)N1c2ccc3c(nc(CC(C(=O)O)c4ccc(C)cc4)n3C3COCC(F)(F)C3)c2CC[C@@H]1C (some centres unmarked) [Example 927] | 1 to 1000 µM |
| COC(=O)N1c2ccc3c(nc(C(C)Cc4cnn(C)c4)n3C3CCNCC3)c2CC[C@@H]1C (some centres unmarked) [Example 928] | 1 to 1000 µM |
| COC(=O)N1c2ccc3c(nc(C(C)Cn4cc(Cl)cn4)n3C3CCS(=O)(=O)C3)c2CC[C@@H]1C (some centres unmarked) [Example 930] | 1 to 1000 µM |
| COC(=O)N1c2ccc3c(nc(Nc4ccncc4F)n3[C@H]3CC[C@H](C(=O)O)CC3)c2CC[C@@H]1C [Example 933] | 1 to 1000 µM |
| COC(=O)N1c2ccc3c(nc(C(=O)N(C)c4ccccc4)n3[C@@H]3CCC[C@@H](C(=O)O)C3)c2CC[C@@H]1C [Example 934] | 1 to 1000 µM |
| COC(=O)N1c2ccc3c(nc(CCn4cccn4)n3CCN3CCNCC3)c2CC[C@@H]1C [Example 935] | 1 to 1000 µM |
| COC(=O)N1c2ccc3c(nc(CC(C(=O)O)c4ccc(C(F)F)cc4)n3C3COCC(F)(F)C3)c2CC[C@@H]1C (some centres unmarked) [Example 937] | 1 to 1000 µM |
| COC(=O)N1c2ccc3c(nc(C(=O)N(C)C4CCCCC4)n3[C@@H]3CCC[C@@H](C(=O)O)C3)c2CC[C@@H]1C [Example 939] | 1 to 1000 µM |
| COC(=O)N1c2ccc3c(nc(Nc4ccncc4F)n3[C@@H]3CCC[C@@H](C(=O)O)C3)c2CC[C@@H]1C [Example 941] | 1 to 1000 µM |
| COC(=O)N1c2ccc3c(nc(Nc4ccnc(C)c4)n3[C@H]3CC[C@H](C(=O)O)CC3)c2CC[C@@H]1C [Example 943] | 1 to 1000 µM |
| COC(=O)N1c2ccc3c(nc(C(C)Cn4cccn4)n3C3CCS(=O)(=O)CC3)c2CC[C@@H]1C (some centres unmarked) [Example 946] | 1 to 1000 µM |
| COC(=O)N1c2ccc3c(nc(C(C)Cc4ccccc4)n3C3CCNCC3)c2CC[C@@H]1C (some centres unmarked) [Example 947] | 1 to 1000 µM |
| COC(=O)N1c2ccc3c(nc(C(=O)Nc4ccccc4)n3[C@@H]3CCC[C@@H](C(=O)O)C3)c2CC[C@@H]1C [Example 948] | 1 to 1000 µM |
| COC(=O)N1c2ccc3c(nc(C(C)Cn4cc(C)cn4)n3C3CCS(=O)(=O)C3)c2CC[C@@H]1C (some centres unmarked) [Example 949] | 1 to 1000 µM |
